Test systems include 786-0; ACHN; CAKI-1; CCRF-CEM; EKVX; Hs-578T; K562; LOX IMVI; M14; MDA-MB-435; NCI-H522; RPMI-8226; SF-268; SF-295; SK-MEL-28; SK-MEL-2; SK-MEL-5; SR; SK-OV-3.
Assay in all cases: DTP human tumour cell line panel, 48 h

Molecules are shown by their SMILES.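 In this assay, cells in 96-well plates receive the compound at five concentrations for 48 hours. Endpoints are linearly interpolated between the surrounding concentrations. Abbreviation: GI50, concentration required for 50% inhibition of growth.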 Calls of active or inactive are those of the source. No stated cut-off is given here; in the data, active = GI50 up to about 1.1 µM and inactive = higher.

As usually defined, the GI50 is the concentration that inhibits growth by half. In the case of `CCCCCN1CCN(c2ncccn2)CC1`, the GI50 in the test with 786-0, in the test with ACHN, with CAKI-1, in the test with CCRF-CEM, with EKVX and with Hs-578T was > 100 µM (inactive) throughout. In addition, the GI50 with K562, with LOX IMVI, with M14, with MDA-MB-435, in the test on NCI-H522 and in the test with RPMI-8226 was > 100 µM (inactive) in each case. Further, the GI50 in the test on SF-268, in the test on SF-295, in the test with SK-MEL-28, with SK-MEL-2, in the test with SK-MEL-5 and in the test with SR was > 100 µM (inactive) throughout.
Take `CN(C)CN1C(=O)S/C(=C2\C(=O)N(CN(C)C)c3ccccc32)C1=O`: the GI50 in the test with 786-0 is 35.7 µM (inactive); in the test with ACHN, 43.7 µM (inactive); with CAKI-1 it was 32 µM (inactive); in the test with EKVX, 43.3 µM (inactive); in the test on Hs-578T it was 34.7 µM (inactive); with LOX IMVI, 21.2 µM (inactive). For the same molecule, the GI50 was 21.7 µM (inactive) in the test with M14; 66.1 µM (inactive) in the test with MDA-MB-435; 36.5 µM (inactive) with NCI-H522; 18 µM (inactive) in the test with RPMI-8226; 32.8 µM (inactive) in the test with SF-268; 96.6 µM (inactive) in the test with SF-295. In addition, the GI50 in the test with SK-MEL-28 was 64.7 µM (inactive); in the test on SK-MEL-2, 32.1 µM (inactive); with SK-MEL-5, 38.6 µM (inactive); in the test on SK-OV-3, > 100 µM (inactive); in the test with SR it was 18.9 µM (inactive).
Take `COc1cc(S(=O)(=O)Nc2nc(-c3ccc(N4C(=O)/C(=C/C=C/c5ccccc5)N=C4c4ccccc4)cc3)cs2)ccc1Cl`: the GI50 is > 100 µM (inactive) in the test with 786-0; > 100 µM (inactive) in the test on ACHN; > 100 µM (inactive) with CAKI-1; 58.7 µM (inactive) in the test on CCRF-CEM; 36.2 µM (inactive) in the test on Hs-578T; 72.3 µM (inactive) in the test on K562. Also, the GI50 in the test on LOX IMVI is 53.5 µM (inactive); in the test on M14, > 100 µM (inactive); with MDA-MB-435, > 100 µM (inactive); in the test with NCI-H522, 48.2 µM (inactive); in the test on SF-268, 28.9 µM (inactive); with SF-295, > 100 µM (inactive). Besides, the GI50 in the test on SK-MEL-28 was 81.3 µM (inactive); in the test with SK-MEL-2, 78.3 µM (inactive); in the test on SK-MEL-5, 53 µM (inactive); in the test on SK-OV-3 it was > 100 µM (inactive); in the test with SR, 58.3 µM (inactive).
Regarding `BrCC(Br)(c1ccccc1)c1ccccc1-c1cc(-c2ccccc2)cc(-c2ccccc2)n1` (stereo unspecified), the GI50 was 3.64 µM (inactive) with 786-0; 7.01 µM (inactive) in the test on ACHN; 5.87 µM (inactive) in the test with CAKI-1; 3.66 µM (inactive) with CCRF-CEM; 3.85 µM (inactive) in the test on EKVX; 4.52 µM (inactive) in the test on Hs-578T. Besides, the GI50 in the test with K562 is 0.893 µM (active); in the test on LOX IMVI, 2.29 µM (inactive); with M14 it was 4.38 µM (inactive); in the test on MDA-MB-435, 1.84 µM (inactive); with NCI-H522, 2.33 µM (inactive); in the test on RPMI-8226, 0.908 µM (active). Besides, the GI50 is 2.36 µM (inactive) in the test on SF-268; 2.9 µM (inactive) in the test on SF-295; 4.46 µM (inactive) with SK-MEL-28; 1.89 µM (inactive) in the test on SK-MEL-2; 1.55 µM (inactive) with SK-MEL-5; 3.89 µM (inactive) in the test with SR.
Take `O=C(Nc1ccccc1)n1[nH]c(=O)n(-c2ccccc2)c1=O`: the GI50 with 786-0, in the test on ACHN, in the test on CAKI-1, in the test with CCRF-CEM, in the test on Hs-578T and in the test with K562 was > 100 µM (inactive) each time. Also, the GI50 in the test with LOX IMVI, in the test with MDA-MB-435, with NCI-H522, in the test with RPMI-8226, with SF-268 and in the test with SF-295 was > 100 µM (inactive) throughout. Besides, the GI50 in the test on SK-MEL-28, in the test with SK-MEL-2, in the test on SK-MEL-5, in the test on SK-OV-3 and in the test with SR was > 100 µM (inactive) in each case.
Take `CC(=O)OCC1OC(n2c3c(c(-c4ccc(C)cc4)c(C#N)c2=S)C(=O)CC(C)(C)C3)C(OC(C)=O)C(OC(C)=O)C1OC(C)=O` (stereo unspecified): the GI50 in the test with 786-0 is 33.7 µM (inactive); in the test with ACHN, 39 µM (inactive); in the test on CAKI-1, 52.5 µM (inactive); in the test on CCRF-CEM it was 31.6 µM (inactive); with Hs-578T it was 47.5 µM (inactive); in the test with K562, 22.7 µM (inactive). For the same molecule, the GI50 with LOX IMVI is 13.3 µM (inactive); in the test on M14, 35.5 µM (inactive); with MDA-MB-435, 27 µM (inactive); in the test on NCI-H522, 30.8 µM (inactive); in the test on RPMI-8226 it was 27.5 µM (inactive); with SF-268, 28.6 µM (inactive). Further, the GI50 in the test on SF-295 was 25.5 µM (inactive); in the test on SK-MEL-28, 26.2 µM (inactive); with SK-MEL-5, 26.9 µM (inactive); in the test with SR, 24.1 µM (inactive).
`NS(=O)(=O)c1cc(Cl)c(NC(=S)NC(=O)Nc2ccc(Cl)c(Cl)c2)c(Cl)c1`: the GI50 was 39 µM (inactive) in the test with 786-0; 34.1 µM (inactive) in the test on ACHN; 76.4 µM (inactive) in the test with CAKI-1; 6.97 µM (inactive) with CCRF-CEM; 28.4 µM (inactive) in the test with EKVX; > 100 µM (inactive) with Hs-578T. In addition, the GI50 is 35.2 µM (inactive) in the test on K562; 40.3 µM (inactive) in the test on LOX IMVI; 27.5 µM (inactive) in the test on M14; 32.7 µM (inactive) in the test with MDA-MB-435; 26.1 µM (inactive) in the test on NCI-H522; 56.8 µM (inactive) in the test on SF-268. Moreover, the GI50 with SF-295 is 37.8 µM (inactive); in the test on SK-MEL-28, 84.3 µM (inactive); in the test with SK-MEL-2, 25.5 µM (inactive); in the test with SK-MEL-5 it was 18.3 µM (inactive); in the test with SK-OV-3 it was 77.4 µM (inactive); with SR it was 36.2 µM (inactive).
For `Cc1nc2c(=O)n(C)c(=O)n(C)c2o1`, the GI50 in the test with 786-0, in the test with ACHN, with CAKI-1, in the test with CCRF-CEM, with EKVX and in the test with Hs-578T was > 100 µM (inactive) in each case. The GI50 in the test on K562, in the test with LOX IMVI, with M14, in the test with MDA-MB-435, with NCI-H522 and with RPMI-8226 was > 100 µM (inactive) throughout. Further, the GI50 in the test on SF-268, in the test on SF-295, in the test on SK-MEL-2, with SK-MEL-5, in the test with SK-OV-3 and in the test on SR was > 100 µM (inactive) in each case.
As for `COc1ccc(/N=N/c2ccc3oc(=O)c(C(=O)Nc4ccccc4)cc3c2)cc1`, the GI50 is > 10 µM (inactive) in the test with 786-0; > 5.81 µM (inactive) in the test on ACHN; > 10 µM (inactive) with CAKI-1; > 10 µM (inactive) with EKVX; > 10 µM (inactive) in the test with Hs-578T; > 10 µM (inactive) in the test on LOX IMVI. Also, the GI50 is > 10 µM (inactive) with M14; > 10 µM (inactive) with MDA-MB-435; > 10 µM (inactive) in the test on NCI-H522; > 10 µM (inactive) in the test with RPMI-8226; > 8.32 µM (inactive) with SF-268; > 10 µM (inactive) with SF-295. The GI50 in the test with SK-MEL-28, with SK-MEL-2, in the test on SK-MEL-5, with SK-OV-3 and in the test on SR was > 10 µM (inactive) throughout.
On to `CC(OC(C)(C)C)[C@H](NC(=O)OC(C)(C)C)C(=O)O` (stereo partly specified), for which the GI50 with 786-0, in the test on ACHN, in the test on CAKI-1, in the test on CCRF-CEM, with EKVX and in the test with Hs-578T was > 100 µM (inactive) each time. Besides, the GI50 in the test on K562, with LOX IMVI, with M14, in the test with MDA-MB-435, in the test on NCI-H522 and with RPMI-8226 was > 100 µM (inactive) each time. Further, the GI50 was > 100 µM (inactive) in the test on SF-268; > 100 µM (inactive) in the test with SF-295; > 10 µM (inactive) in the test with SK-MEL-28; > 100 µM (inactive) in the test with SK-MEL-5; > 100 µM (inactive) with SK-OV-3; > 100 µM (inactive) in the test with SR.
For `CCOC(=O)c1c(C)nc2c(c1-c1cn(-c3ccccc3)nc1-c1ccccc1)C(=O)c1ccccc1-2`, the GI50 in the test on 786-0, in the test with CAKI-1, in the test on CCRF-CEM, in the test with EKVX, in the test on Hs-578T and in the test with K562 was > 100 µM (inactive) throughout. Besides, the GI50 in the test with LOX IMVI, in the test with M14, in the test with MDA-MB-435, in the test on NCI-H522, with SF-268 and with SF-295 was > 100 µM (inactive) throughout. In addition, the GI50 in the test on SK-MEL-28 was > 100 µM (inactive); with SK-MEL-2, > 100 µM (inactive); with SK-MEL-5 it was > 100 µM (inactive); in the test on SK-OV-3 it was > 100 µM (inactive); with SR, > 10 µM (inactive).
